Data from patent US20070077583A1, “Alpha enolase-directed diagnostics and therapeutics for cancer and chemotherapeutic drug resistance” (Aurelium BioPharma, Inc., priority 2005, published 2007).

Columns and labels:
H460 cells = test: MTT cytotoxicity assay, H460 cells transfected with α-enolase siRNA; type: cell-based, human
Protocol: To establish the effectiveness of α-enolase silencing on other cancer cell types, H460 non-small cell lung cancer cells were challenged with a chemotherapeutic drug, MTT cytotoxicity assays were carried out and survival curves plotted as shown in FIG. 17.

A549 cells = test: MTT cytotoxicity assay, A549 cells transfected with α-enolase siRNA; conditions: A549 cells
Protocol: Small interfering RNA transfected cells were seeded in triplicate into 96-well plates at 5×10^3 cells/well 48 hrs post-transfection. The cells were incubated for an additional 16-24 hrs before they were exposed to increasing concentrations of cytotoxic drugs. […] Appropriate dilutions were made in the respective media for each cell line. Following addition of drugs, incubation was continued for an additional 72 hrs. Twenty-five ml of MTT dye (5 mg/ml) were added into each well and the plate was further incubated at 37° C. for 4 hrs. The dye was solubilized with 10% Triton X-100, 0.01 N HCl and further incubated at 37° C. in the dark for 30 min. Cell viability was determined by measure of absorption at 570 nm in a Wallac multiwell plate reader (PerkinElmer, Inc., Boston, Mass.). The averages of triplicate wells were plotted using the Prism software (GraphPad Software, Inc., San Diego, Calif.).
To investigate if α-enolase is broadly involved in mediating drug resistance to microtubule targeting agents, non-small cell lung cancer cell lines A549 and H460, respectively, were transfected with α-enolase siRNA and enolase expression and viability were assessed.

HUVEC cells = test: HUVEC capillary tube formation on Matrigel; type: cell-based
Protocol: Transfected cells were then subjected to an angiogenesis assay to determine the effect of α-enolase on capillary tube formation. Briefly, Matrigel-coated 24-well culture plates (BD Biosciences, Rockville, Md.) were thawed at 4° C. overnight. The Matrigel was allowed to solidify for 1 hr at 37° C. α-enolase-1-directed siRNA or control siRNA silenced HUVEC cells were subsequently seeded onto the Matrigel-coated wells at a density of 40,000 cells per well in the absence of endothelial cell growth factors. Taxol was added to selected wells at 2 nM final concentration. The cells were allowed to differentiate overnight at 37° C., and were photographed after 5-6 and 16 hours using Q-Capture software under an Olympus fluorescence microscope.

SW-480 cells = test: cells; type: cell-based, human
Protocol: The colorectal adenocarcinoma cell line SW-480 was treated with α-enolase-directed siRNA using the procedures described above.

α-enolase siRNA: siRNA duplex targeting human α-enolase mRNA; sense 5′-GGCUGUUGAGCACAUCAAUtt-3′ (SEQ ID NO: 1), antisense SEQ ID NO: 2; Ambion (antisense AUUGAUGUGCUCAACAGCC; bought from Ambion, sense has tt overhang, further chemistry not given here)
cell viability after siRNA alone (H460 cells): less viable
cell viability after siRNA alone (A549 cells): decreased the viability
capillary tube formation on Matrigel (HUVEC cells): inhibited from forming capillary tubes
decrease in cell viability (SW-480 cells): 50%
